Assay results as given in US20100190824A1, “Novel Substituted Piperidones as HSP Inducers” (priority 2007, published 2010).

Experiments:
[1] = system: HSP70b mRNA; experiment: Cellular expression of HSP-70 mRNA in Hela cells (real-time PCR); type: cell-based; conditions: fold induction of HSP-70b mRNA relative to the vehicle treated control; 4 hours; normalized to 18S rRNA
Method: (§1) Experiments set forth in this section were conducted to determine whether the compounds of the present invention are able to elevate the expression of HSP-70 gene in cells.
(§2) Hela cell-line or primary mixed neurons derived from neonatal rat cerebellum were employed. Induction was carried out for the indicated dose(s) for 4 hours duration and total RNA was isolated. Expression of HSP70b mRNA along-with expression of 18S rRNA was monitored by real-time PCR. HSP70b mRNA expression was normalized relative to the expression of 18S rRNA.
(§3) The results for test compounds were expressed as fold induction of HSP-70 mRNA relative to vehicle treated control and are as shown in Table 2 & 3.

[2] = system: TNF-α mRNA; experiment: Inhibition of LPS-induced TNF-α expression in PMA differentiated THP-1 cells; type: cell-based, Human; conditions: LPS (1 ug/ml) and compound for 4 hours, LPS alone as 100%
Method: The purpose of the present study was to determine the inhibition of lipopolysaccharide(LPS)-induced TNF-α expression in phorbol merstyl ester (PMA) differentiated THP-1 cells.
Human monocytic leukaemia cell line (THP-1), differentiated into macrophage-like cells by PMA treatment was employed. Differentiated cells were treated with either LPS (1 ug/ml) alone or with LPS (1 ug/ml) and compound for 4 hours. Total RNA was isolated and expression of TNF-αmRNA along-with expression of 18S rRNA was monitored by real-time PCR. TNF-α mRNA expression was normalized relative to the expression of 18S rRNA Considering TNF-α expression for cells treated with LPS alone as 100%; the results for test compounds were expressed as % inhibition of TNF-α expression and are as shown in Table 4

[3] = system: HSP70b mRNA; experiment: Cellular expression of HSP-70 mRNA in primary mixed neurons (real-time PCR); type: cell-based; conditions: fold induction of HSP70b mRNA relative to vehicle treated control; primary mixed neurons from neonatal rat cerebellum; 4 hours; normalized to 18S rRNA
Method: as §1, §2, §3

Row | SMILES | HSP Induction in Hela cells [1] | TNF-alpha Inhibition [2] | HSP Induction in mixed neuron [3]
1 | CCOC(=O)N1CC(=Cc2ccccn2)C(=O)C(C)(C)C1Cc1ccc(OC)cc1 (stereo not shown) [Compound 13, 2-(4-Methoxy-benzyl)-3,3-dimethyl-4-oxo-5-[1-pyridin-2-yl-methylidene]-piperidine-1-carboxylic acid ethyl ester] | (+++) (193-1536 fold) | – | –
2 | COc1ccc(CC2N(C(=O)Oc3ccccc3)CC(=Cc3ccccn3)C(=O)C2(C)C)cc1 (stereo not shown) [Compound 14, 2-(4-Methoxy-benzyl)-3,3-dimethyl-4-oxo-5-[1-pyridin-2-yl-methylidene]-piperidine-1-carboxylic acid phenyl ester] | (+++) (193-1536 fold) | – | –
3 | COc1ccc(CC2N(C(=O)OCC(C)C)CC(=Cc3ccccn3)C(=O)C2(C)C)cc1 (stereo not shown) [Compound 15, 2-(4-Methoxy-benzyl)-3,3-dimethyl-4-oxo-5-[1-pyridin-2-yl-methylidene]-piperidine-1-carboxylic acid isobutyl ester] | (++++) (>1536 fold) | – | –
4 | COc1ccc(CC2N(C(=O)C(C)(C)C)CC(=Cc3ccccn3)C(=O)C2(C)C)cc1 (stereo not shown) [Compound 16, 1-(2,2-Dimethyl-propionyl)-2-(4-methoxy-benzyl)-3,3-dimethyl-5-[1-pyridin-2-yl-methylidene]-piperidin-4-one] | (++++) (>1536 fold) | (++++) (>80%) | –
5 | COc1ccc(CC2N(C(=O)Nc3c(C)cccc3C)CC(=Cc3ccccn3)C(=O)C2(C)C)cc1 (stereo not shown) [Compound 17, 2-(4-Methoxy-benzyl)-3,3-dimethyl-4-oxo-5-[1-pyridin-2-yl-methylidene]-piperidine-1-carboxylic acid (2,6-dimethyl-phenyl)-amde] | (++) (25-192 fold) | – | –
6 | CC1(C)CN(Cc2ccccc2)CC(=Cc2cccc(N3CCOCC3)n2)C1=O [Compound 20, 1-Benzyl-3,3-dimethyl-5-[1-(6-morpholin-4-yl-pyridin-2-yl)-methylidene]-piperidin-4-one] | (+++) (193-1536 fold) | (++) (41-60%) | –
7 | CC1(C)CN(Cc2ccccc2)CC(=Cc2cccc(N3CCCCC3)n2)C1=O [Compound 23, 1-Benzyl-3,3-dimethyl-5-[1-(3,4,5,6-tetrahydro-2H-[1,2′]bipyridinyl-6′-yl)-methylidene]-piperidin-4-one] | (+++) (193-1536 fold) | – | –
8 | CC1(C)CN(Cc2ccccc2)C(c2ccccc2)C(=Cc2ccccn2)C1=O (stereo not shown) [Compound 25, 1-Benzyl-5,5-dimethyl-2-phenyl-3-[1-pyridin-2-yl-methylidene]-piperidin-4-one] | (++++) (>1536 fold) | – | –
9 | CC1(C)CN(Cc2ccccc2)C(c2ccccn2)C(=Cc2cccc(N3CCOCC3)n2)C1=O (stereo not shown) [Compound 28, 1-Benzyl-5,5-dimethyl-3-[1-(6-morpholin-4-yl-pyridin-2-yl)-methylidene]-2,3,5,6-tetrahydro-1H-[2,2′]bipyridinyl-4-one] | (++++) (>1536 fold) | – | –
10 | CC1(C)CN(Cc2ccccc2)C(c2ccccn2)C(=Cc2ccccn2)C1=O (stereo not shown) [Compound 29, 1-Benzyl-5,5-dimethyl-3-[1-pyridin-2-yl-methylidene]-2,3,5,6-tetrahydro-1H-[2,2′]bipyridinyl-4-one] | (+++) (193-1536 fold) | – | –
11 | CSc1ccc(C=C2C(=O)C(C)(C)CN(Cc3ccccc3)C2c2ccccc2)cc1 (stereo not shown) [Compound 30, 1-Benzyl-5,5-dimethyl-3-[1-(4-methylsulfanyl-phenyl)-methylidene]-2-phenyl-piperidin-4-one] | (+) (4-24 fold) | – | –
12 | CC1(C)CN(Cc2ccccc2)C(c2ccccc2)C(=Cc2cccc(N3CCOCC3)n2)C1=O (stereo not shown) [Compound 31, 1-Benzyl-5,5-dimethyl-3-[1-(6-morpholin-4-yl-pyridin-2-yl)-methylidene]-2-phenyl-piperidin-4-one] | (++) (25-192 fold) | – | –
13 | CC1(C)CN(Cc2ccccc2)C(c2cccs2)C(=Cc2cccc(N3CCOCC3)n2)C1=O (stereo not shown) [Compound 33, 1-Benzyl-5,5-dimethyl-3-[1-(6-morpholin-4-yl-pyridin-2-yl)-methylidene]-2-thiophen-2-yl-piperidin-4-one] | (+++) (193-1536 fold) | – | –
14 | CC1(C)CN(Cc2ccccc2)C(c2ccccn2)C(=Cc2cccc(N3CCCCC3)n2)C1=O (stereo not shown) [Compound 34, 1-Benzyl-5,5-dimethyl-3-[1-(3,4,5,6-tetrahydro-2H-[1,2′]bipyridinyl-6′-yl)-methylidene]-2,3,5,6-tetrahydro-1H-[2,2′]bipyridinyl-4-one] | (++) (25-192 fold) | – | –
15 | CC1(C)CN(C(=O)Oc2ccccc2)CC(=Cc2cccc(N3CCCCC3)n2)C1=O [Compound 35, 3,3-Dimethyl-4-oxo-5-[1-(3,4,5,6-tetrahydro-2H-[1,2′]bipyridinyl-6′-yl)-methylidene]-piperidine-1-carboxylic acid phenyl ester] | (++++) (>1536 fold) | – | –
16 | CC1(C)CN(C(=O)Oc2ccccc2)CC(=Cc2cccc(N3CCOCC3)n2)C1=O [Compound 36, 3,3-Dimethyl-5-[1-(6-morpholin-4-yl-pyridin-2-yl)-methylidene]-4-oxo-piperidine-1-carboxylic acid phenyl ester] | (++++) (>1536 fold) | – | –
17 | CC1(C)CN(Cc2ccccc2)CC(=Cc2nc3ccccc3c(=O)[nH]2)C1=O [Compound 37, 2-[1-Benzyl-5,5-dimethyl-4-oxo-piperidin-3-ylidenemethyl]-3H-quinazolin-4-one] | (++++) (>1536 fold) | – | –
18 | CC1(C)CN(CCc2cccs2)CC(=Cc2ccccn2)C1=O [Compound 79, 3,3-Dimethyl-5-[1-pyridin-2-yl-methylidene]-1-(2-thiophen-2-yl-ethyl)-piperidin-4-one] | – | (++++) (>80%) | (+++) (9-16 fold)
19 | CC1(C)CN(Cc2ccco2)C(c2ccccc2)C(=Cc2ccccn2)C1=O (stereo not shown) [Compound 82, 1-Furan-2-ylmethyl-5,5-dimethyl-2-phenyl-3-[1-pyridin-2-yl-methylidene]-piperidin-4-one] | – | (++++) (>80%) | (+++) (9-16 fold)
20 | CN1CC(C)(C)C(=O)C(=Cc2ccccn2)C1c1ccccc1 (stereo not shown) [Compound 85, 1,5,5-Trimethyl-2-phenyl-3-[1-pyridin-2-yl-methylidene]-piperidin-4-one] | – | (+) (21-40%) | (++) (5-8 fold)
21 | COc1cc(C2C(=Cc3ccccn3)C(=O)C(C)(C)CN2Cc2ccco2)cc(OC)c1OC (stereo not shown) [Compound 90, 1-Furan-2-ylmethyl-5,5-dimethyl-3-[1-pyridin-2-yl-methylidene]-2-(3,4,5-trimethoxy-phenyl)-piperidin-4-one] | – | (++) (41-60%) | (+) (2-4 fold)
22 | O=C1C(=Cc2cccc(N3CCOCC3)n2)C(=O)N(Cc2ccccc2)CC1c1ccccc1 (stereo not shown) [Compound 103, 1-Benzyl-3-[1-(6-morpholin-4-yl-pyridin-2-yl)-methylidene]-5-phenyl-piperidine-2,4-dione] | – | (+) (21-40%) | (+) (2-4 fold)
23 | CC1(C)C(=O)C(=Cc2ccccn2)CN(C(=S)Nc2ccccc2)C1c1ccc(S(C)(=O)=O)cc1 (stereo not shown) [Compound 105, 2-(4-Methanesulfonyl-phenyl)-3,3-dimethyl-4-oxo-5-[1-pyridin-2-yl-methylidene]-piperidine-1-carbothioic acid phenylamide] | – | (++) (41-60%) | (++) (5-8 fold)
24 | CC1(C)CN(Cc2ccccc2)C(c2ccc(S(C)(=O)=O)cc2)C(=Cc2cccc(N3CCOCC3)n2)C1=O (stereo not shown) [Compound 227, 1-Benzyl-2-(4-methanesulfonyl-phenyl)-5,5-dimethyl-3-[1-(6-morpholin-4-yl-pyridin-2-yl)-methylidene]-piperidin-4-one] | – | (++++) (>80%) | (++++) (>16 fold)
25 | CC1(C)CN(Cc2ccccc2)C(c2ccc(S(C)(=O)=O)cc2)C(=Cc2ccccn2)C1=O (stereo not shown) [Compound 229, 1-Benzyl-2-(4-methanesulfonyl-phenyl)-5,5-dimethyl-3-[1-pyridin-2-yl-methylidene]-piperidin-4-one] | – | (++++) (>80%) | (++) (5-8 fold)
26 | COc1ccc(OC)c(C2C(=Cc3cccc(N4CCN(C)CC4)n3)C(=O)C(C)(C)CN2Cc2ccc(C)cc2)c1 (stereo not shown) [Compound 234, 2-(2,5-Dimethoxy-phenyl)-5,5-dimethyl-1-(4-methyl-benzyl)-3-[1-[6-(4-methyl-piperazin-1-yl)-pyridin-2-yl]-methylidene]-piperidin-4-one] | – | (+++) (61-80%) | (+++) (9-16 fold)
